Source: PubChem BioAssay AID1963835 (Molecular Pharmacology Branch, DTP, NCI, 2024)
pIC50: −log10 of the molar value. Values joined by “and” are separate entries in the source; they are usually repeats but may differ in a detail not shown here. Equal entries are not always repeated.

Test system: 699152-130-R-J1-PDC complex spheroid viability
Experiment: Anticancer human tumor 699152-130-R-J1-PDC patient-derived pancreatic carcinoma cell line growth inhibition [POLQ]
Settings: for viability, T/C: stronger effect = lower value
Experimental: Multicellular complex tumor spheroid response to Polymerase (POL) inhibitors (novobiocin, ART-558, RP6685) in combination with a variety of drugs and investigational agents in selected tumor cell lines
The POL inhibitors (novobiocin, ART-558, and RP6685) were evaluated both individually and in combination with standard of care and investigational anticancer small molecules within a complex spheroid model of solid tumors. . Complex spheroids include a stromal component modeled by human endothelial cells (HUVEC) and fibroblasts modeled by human mesenchymal stem cells (MSCs). The concentration ranges selected for each drug and investigational agent were based upon clinically achievable concentrations if the clinical Cmax of the agent was known.
Compounds. The drugs and investigational agents: novobiocin (NSC847541), ART-558 (NSC835418), RP-6685 (NSC848927), peposertib (NSC802822), ceralasertib (NSC780249), elimusertib (NSC800525), camonsertib (NSC841442), AZD-1390 (NSC803789), olaparib (NSC753686), talazoparib (NSC767125), rucaparib (NSC756644), sotorasib (NSC818433), MRTX-1133 (NSC836407), SN-38 (NSC673596), topotecan (NSC609699), epotoside (NSC141540), doxorubicin (NSC123127), gemcitabine (NSC613327), 5-fluorouracil (NSC19893), paclitaxel (NSC125973), vemurafenib (NSC761431), MSA-2 (NSC828583), SN-011 (NSC837082), adavosertib (NSC754352), prexasertib (NSC758257), carboplatin (NSC241240) and oxaliplatin (NSC266046), were obtained from the National Cancer Institute (NCI) Developmental Therapeutics Program Chemical Repository (21). The FDA-approved anticancer drug set is available from the Developmental Therapeutics Program at https://dtp.cancer.gov/organization/dscb/obtaining/. […] The stock solutions were prepared in dimethyl sulfoxide (DMSO, Sigma-Aldrich, St. Louis, MO, cat. D2650), except for the platinum compounds which were prepared in saline (Quality Biological, Gaithersburg, MD, cat. 114-055-101), at 800-fold the tested concentration and stored at -70 degrees C prior to their use. All drugs and investigational agents were tested over a range starting from a high concentration at or near the clinical Cmax and decreasing in half-log increments. If the clinical Cmax for an agent had not been determined, the highest concentration tested was 10 microM, except for SN-38, which was tested at a high concentration of 1 microM.
Cell Culture. All cells were maintained in an incubator at 37 degrees C and 5% CO2 with 95% humidity. The PDC lines were cultured according to standard operating procedures established by the NCI PDMR (https://pdmr.cancer.gov). Table 3 of the manuscript, lists the cell lines along with the number of the three cell types plated to form the mct-spheroids and media for tumor cell growth. After thawing, all PDC lines, except 997537-175-T-J1-PDC and 415267-285-R-J2-PDC, were cultured in Matrigel-coated flasks prepared with a working solution of 1X Ham's F-12 nutrient mix, without supplementation (Thermo Fisher Scientific, cat. 11765054), 100 U/mL penicillin-streptomycin (Thermo Fisher Scientific, cat. 15140122), and 2.5% Matrigel (Corning Inc., Corning, NY, cat. 354248) for the first three passages. The two PDC lines 997537-175-T-J1-PDC and 415267-285-R-J2-PDC were cultured on uncoated flasks. The 857933-349-R-J2-PDC line was cultured in 6C/Colon 1B media containing advanced DMEM/F-12 (Thermo Fisher Scientific, cat. 12634028), 10 mM HEPES (Thermo Fisher Scientific, cat. 15630080), 1X GlutaMAX supplement (Thermo Fisher Scientific, cat. 35050061), 0.1 mg/mL primocin (InvivoGen, San Diego, CA, cat. ant-pm-2), 10% defined fetal bovine serum, heat inactivated (HyClone Laboratories Inc., Logan, UT, cat. SH30070.03HI), 50% L-WRN conditioned media (ATCC, cat. CRL-3276), 1.25 mM N-Acetyl-L-cysteine (Sigma-Aldrich, cat. A9165), 10 mM nicotinamide (Sigma-Aldrich, cat. N0636), 1X B-27 supplement (Thermo Fisher Scientific, cat. 17504044), 1X N-2 supplement (Thermo Fisher Scientific, cat. […]
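Further: spheroids exposed to agents for 7 days before viability reading.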
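Wherever viability, T/C is given: percent of DMSO vehicle control viability so 100% = vehicle and 0% = no viable signal.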

## COc1cc(C2c3cc4c(cc3C(OC3OC5COC(C)OC5C(O)C3O)C3COC(=O)C23)OCO4)cc(OC)c1O (centres undefined)
Compound 0.0316 µM
  viability, T/C: 105% and 94.4% and 87.1%
Compound 0.1 µM
  viability, T/C: 90.3% and 87% and 86.1%
Compound 0.316 µM
  viability, T/C: 76.8% and 81.6% and 71.8%
Compound 1 µM
  viability, T/C: 73.7% and 79.2% and 62.8%
Compound 3.16 µM
  viability, T/C: 59.8% and 63.5% and 52.7%
Compound 10 µM
  viability, T/C: 53.1% and 44% and 40.2%
Curve of compound
  pIC50: < 5.00 and 5.14 and 5.43

## CC(=O)O[C@H]1C(=O)[C@@]2(C)[C@H]([C@H](OC(=O)c3ccccc3)[C@]3(O)C[C@H](OC(=O)[C@H](O)[C@@H](NC(=O)c4ccccc4)c4ccccc4)C(C)=C1C3(C)C)[C@]1(OC(C)=O)CO[C@@H]1C[C@@H]2O + Nc1ccc(C#CCN(C(=O)Cc2ncc(C(F)(F)F)cc2C(F)(F)F)c2ccc(F)cc2)nn1
Curve of first compound, second compound 0.0316 µM
  pIC50: < 5.52
Curve of first compound, second compound 0.1 µM
  pIC50: < 5.52
Curve of first compound, second compound 0.316 µM
  pIC50: < 5.52
Curve of first compound, second compound 1 µM
  pIC50: < 5.52
Curve of first compound, second compound 3.16 µM
  pIC50: < 5.52
Curve of first compound, second compound 10 µM
  pIC50: < 5.52
Second compound 0.0316 µM, first compound 0.00949 µM
  viability, T/C: 82%
Second compound 0.0316 µM, first compound 0.03 µM
  viability, T/C: 66.1%
Second compound 0.0316 µM, first compound 0.0949 µM
  viability, T/C: 62.1%
Second compound 0.0316 µM, first compound 0.3 µM
  viability, T/C: 67.1%
Second compound 0.0316 µM, first compound 0.949 µM
  viability, T/C: 72.8%
Second compound 0.0316 µM, first compound 3 µM
  viability, T/C: 75.6%
Second compound 0.1 µM, first compound 0.00949 µM
  viability, T/C: 79.8%
Second compound 0.1 µM, first compound 0.03 µM
  viability, T/C: 69%
Second compound 0.1 µM, first compound 0.0949 µM
  viability, T/C: 61.4%
Second compound 0.1 µM, first compound 0.3 µM
  viability, T/C: 63.2%
Second compound 0.1 µM, first compound 0.949 µM
  viability, T/C: 68.8%
Second compound 0.1 µM, first compound 3 µM
  viability, T/C: 70.5%
Second compound 0.316 µM, first compound 0.00949 µM
  viability, T/C: 85.3%
Second compound 0.316 µM, first compound 0.03 µM
  viability, T/C: 69.2%
Second compound 0.316 µM, first compound 0.0949 µM
  viability, T/C: 65.5%
Second compound 0.316 µM, first compound 0.3 µM
  viability, T/C: 68%
Second compound 0.316 µM, first compound 0.949 µM
  viability, T/C: 64.8%
Second compound 0.316 µM, first compound 3 µM
  viability, T/C: 72.8%
Second compound 1 µM, first compound 0.00949 µM
  viability, T/C: 83%
Second compound 1 µM, first compound 0.03 µM
  viability, T/C: 72.2%
Second compound 1 µM, first compound 0.0949 µM
  viability, T/C: 65.5%
Second compound 1 µM, first compound 0.3 µM
  viability, T/C: 65.4%
Second compound 1 µM, first compound 0.949 µM
  viability, T/C: 71.6%
Second compound 1 µM, first compound 3 µM
  viability, T/C: 67.7%
Second compound 3.16 µM, first compound 0.00949 µM
  viability, T/C: 80.9%
Second compound 3.16 µM, first compound 0.03 µM
  viability, T/C: 68%
Second compound 3.16 µM, first compound 0.0949 µM
  viability, T/C: 65.4%
Second compound 3.16 µM, first compound 0.3 µM
  viability, T/C: 69.9%
Second compound 3.16 µM, first compound 0.949 µM
  viability, T/C: 84.2%
Second compound 3.16 µM, first compound 3 µM
  viability, T/C: 76.9%
Second compound 10 µM, first compound 0.00949 µM
  viability, T/C: 97%
Second compound 10 µM, first compound 0.03 µM
  viability, T/C: 70.5%
Second compound 10 µM, first compound 0.0949 µM
  viability, T/C: 72.3%
Second compound 10 µM, first compound 0.3 µM
  viability, T/C: 71.9%
Second compound 10 µM, first compound 0.949 µM
  viability, T/C: 86.7%
Second compound 10 µM, first compound 3 µM
  viability, T/C: 78.5%
